Assay: logP determination by HPLC on a reversed-phase column (C 18), EEC Directive 79/831 Annex V.A8
Assay type: physicochemical
Method: The stated logP values were determined in accordance with EEC Directive 79/831 Annex V.A8 by HPLC (high performance liquid chromatography) on a reversed-phase column (C 18). Temperature: 43° C.

[1] = method marker [b], isomer A / isomer B / isomer mixture as noted in the cell
[2] = method marker [a] (footnote not shown), isomer A / isomer B / isomer mixture as noted in the cell

For `CC(=NOCCCCCCON=C(C)c1cccc(C)n1)c1ccc2c(c1)CC(C)O2` (stereo not shown) [compound 455], the logP (value marked [b]) was 5.97^[b].
With `CC(=NOCCCCCCON=C(Cc1ccccc1)c1ncccc1C)c1cccc(C)n1` (single isomer, unassigned) [compound 531] the logP (value marked [b]) was 4.97^b] (isomer )A.
With `C=C(CON=C(C)c1ccc2c(c1)OCO2)CON=C(C)c1cccc(C)n1` [compound 401] the logP (value marked [b]) was 4.20^[b].
For `C=C(CON=C(C)c1cccc(C)n1)CON=C(CC)c1ncccc1C` (single isomer, unassigned) [compound 143], the logP [1] was 3.23^[b] (isomer A).
For `C=C(CON=C(C)c1cccc(C)n1)CON=C(C)c1ncc(C(F)(F)F)cc1Cl` (single isomer, unassigned) [compound 135], the logP [1] was 4.95^[b] (isomer B).
In the case of `C=C(CON=C(C)c1cccc(C)n1)CON=C(Cc1ccccc1)c1ncccc1C` [compound 349], the logP (value marked [b]) is reported as 4.82^[b].
With `CC(=NOCC(CON=C(C)c1cccc(C)n1)=NO)c1cccc(C)n1` [compound 82] the logP [1] was 1.91^[b].
In the case of `C=C(CON=C(N)c1cc(Cl)cc(Cl)c1)CON=C(C)c1cccc(C)n1` [compound 190], the logP [1] is reported as 4.32^[b].
For `CC(=NOCC(C)CON=C(C)c1cccc(Cl)n1)c1cccc(Cl)n1` (stereo not shown) [compound 568], the logP (method marked [a] in Table 1) was 6.08^[a].
With `CC(=NOCCCCCCON=C(c1cccc(C)n1)C1CC1)c1cccc(C)n1` [compound 347] the logP (value marked [b]) was 4.56^[b].
In the case of `CC(=NOCC(C)CON=C(C)c1cccnc1Cl)c1cccnc1Cl` (mixture of isomers) [compound 107], the logP [2] is reported as 3.87^[a].
With `C=C(CO/N=C(\N)c1nc(C)c(Cl)c(C)n1)CO/N=C(\N)c1nc(C)c(Cl)c(C)n1` [compound 46] the logP [1] was 2.84^[b].
For `CC(=NOC(C)CC(C)ON=C(C)c1cc(C)cc(C)n1)c1cc(C)cc(C)n1` (stereo not shown) [Compound 557], the logP (method marked [b] in Table 1) was 2.39^[b] and the logP (method marked [c] in Table 1) was 6.63^[c].
In the case of `CC(=NOCC(O)(CON=C(C)c1cccc(C)n1)CON=C(C)c1cccc(C)n1)c1cccc(C)n1` (stereo not shown) [compound 221], the logP [2] is reported as 2.65^[a).
In the case of `CC(=NOCCOCCON=C(C)c1cccc(C)n1)c1cccc(C)n1` [Compound 181], the logP [1] is reported as 1.84^[b].
In the case of `CC(=NOCC1(CON=C(C)c2nc(C)ccc2C)CCC1)c1nc(C)ccc1C` (single isomer, unassigned) [compound 761], the logP (value marked [b]) is reported as 3.77^[b] and the logP (value marked [c]) is reported as 5.84^[c].
For `CC(=NOCC1(CON=C(C)c2ccc(C)c(C)n2)CCC1)c1ccc(C)c(C)n1` [Compound 319], the logP (value marked [b]) was 4.07^b] and the logP (value marked [c]) was 7.05^[c].
In the case of `CC(=NOCCCCON=C(C)c1cccc2ccccc12)c1cccc(C)n1` [compound 383], the logP (value marked [b]) is reported as 5.19^[b].
In the case of `CC(=NOCCCON=C(C)c1ncccc1C)c1ncccc1C` (single isomer, unassigned) [compound 84], the logP [2] is reported as 2.51^[a] (isomer B).
In the case of `C=C(CON=C(C)c1cc(C)c(C)nn1)CON=C(C)c1cc(C)c(C)nn1` [compound 284], the logP (value marked [b]) is reported as 2.33^[b].
For `CC(=NOCC(O)CON=C(C)c1ccc(C)c(C)n1)c1ccc(C)c(C)n1` (stereo not shown) [compound 323], the logP (value marked [b]) was 1.36^[b] and the logP (value marked [c]) was 3.81^[c].
For `Cc1cccc(C(=NOCC(C)CON=C(c2cccc(C)n2)c2cccs2)c2cccs2)n1` (stereo not shown) [compound 673], the logP (method marked [b] in Table 1) was 4.49^[b].
In the case of `CCC(=NOCC(C)CON=C(CC)c1nc(C)c(C)c(C)n1)c1nc(C)c(C)c(C)n1` (stereo not shown) [Compound 254], the logP [1] is reported as 4.38^[b].
In the case of `CC(=NOCCCCON=C(C)c1cccc(C(C)C)n1)c1cccc(C)n1` [compound 452], the logP (value marked [b]) is reported as 5.97^[b].
In the case of `CC(=NOCC(C)CON=C(C)c1cccc(C)n1)c1ccnc(C)c1` (stereo not shown) [compound 432], the logP (value marked [b]) is reported as 1.80^[b].
For `CC(=NOCC(C)CON=C(C)c1cccc(N2CCCC2)n1)c1cccc(N2CCCC2)n1` (stereo not shown) [Compound 783], the logP (value marked [a]) was 2.51^[a].
For `CC(=NOCC(C)CON=C(C)c1cc(C(C)(C)C)ccn1)c1cc(C(C)(C)C)ccn1` (stereo not shown) [compound 104], the logP [2] was 5.88^[a].
In the case of `CCOc1cc(C)nc(C(C)=NOCC(C)CON=C(C)c2cc(OCC)cc(C)n2)c1` (stereo not shown) [Compound 683], the logP (method marked [a] in Table 1) is reported as 1.71^[a].
In the case of `CCCC(=NOCC1(CON=C(CCC)c2cccc(C)n2)CC(CC(C)C)=NO1)c1cccc(C)n1` (stereo not shown) [compound 619], the logP (method marked [b] in Table 1) is reported as 6.22^[b].
For `CC(=NOCC(C)CON=C(C)c1cc(Cl)cc(C)n1)c1cc(C)cc(C)n1` (racemic) [compound 878], the logP (value marked [a]) was 5,69^[a], the logP (value marked [b]) was 5.69^[b] and the logP (value marked [c]) was 7.32^[c].
For `CC(=NOCCCCON=C(C)c1nccc(C)n1)c1cccc(C)n1` [compound 508], the logP (value marked [b]) was 2.37^[b].
With `COCc1nc(C(N)=NOC/C=C/CON=C(N)c2nc(COC)c(C)c(COC)n2)nc(COC)c1C` (single isomer, unassigned) [compound 769] the logP (value marked [b]) was 1.75^[b] (isomer B).
For `C=C(CON=C(C)c1cccc(C)n1)CON=C(C)c1ccc(C)c(C)n1` [Compound 204], the logP [1] was 3.10^[b].
For `CC(=NOCC(C)CON=C(C)c1cc(C2CC2)cc(C)n1)c1cccc(C)n1` (stereo not shown) [compound 845], the logP (value marked [a]) was 3.21^[a] and the logP (value marked [c]) was 6.40^[c].
With `CC(=NOCC(C)CON=C(C)c1cccc([Si](C)(C)C)n1)c1ccccn1` (stereo not shown) [Compound 826] the logP (value marked [b]) was 6.72^[b] and the logP (value marked [c]) was 7.29^[c].
For `C/C(=N\OCC(C)CON)c1ccc(C)c(C)n1` (racemic) [XII-7], the logP ([a] acidic range, pH 2.3, 0.1% aqueous phosphoric acid and acetonitrile) was 0.37^[a], the logP ([b] LC-MS, acidic range, pH 2.7, 0.1% aqueous formic acid and acetonitrile) was 0.37^[b] and the logP ([c] LC-MS, neutral range, pH 7.8, 0.001 molar aqueous ammonium bicarbonate solution and acetonitrile) was 2.49^[c].
With `CC(=NOCC(C)CON=C(C)c1cccc(C(F)(F)F)n1)c1cccc(C(F)(F)F)n1` (stereo not shown) [Compound 169] the logP [2] was 6.41^[a].
For `CCC(CC)(CON=C(C)c1cc(C)cc(C)n1)CON=C(C)c1cc(C)cc(C)n1` [Compound 811], the logP (value marked [b]) was 4.79^[b] and the logP (value marked [c]) was 7.36^[c].
With `C=C(CON=C(C)c1cccc(C)n1)CON=C(N)c1nc(C2CC2)cc(C2CC2)n1` [Compound 243] the logP [1] was 3.09^[b].
For `N/C(=N\OCO/N=C(\N)c1nc(C2CC2)cc(C2CC2)n1)c1nc(C2CC2)cc(C2CC2)n1` [compound 42], the logP [1] was 2.92^[b].
With `CC(=NOCC(C)(C)CON=C(C)c1cc(C)cc(C)n1)c1cc(C)cc(C)n1` [Compound 276] the logP (value marked [a]) was 2.54^[a].
For `CC(=NOCCCCON=C(C)c1cc(C)cc(C)n1)c1cccc(C)n1` [compound 447], the logP (value marked [b]) was 2.41^[b].
For `Cc1cc(C)nc(/C(N)=N/OCCCCO/N=C(\N)c2nc(C)cc(C)n2)n1` [compound 4], the logP [1] was 1.73^[b].
With `Cc1cc(C)nc(C(C#N)=NOCC(C)CON=C(C#N)c2cc(C)cc(C)n2)c1` (stereo not shown) [Compound 838] the logP (value marked [a]) was 4.84^[a].
With `CC(=NOCCCCON=C(Cc1ccccc1)c1ncccc1C)c1cccc(C)n1` [compound 528] the logP (value marked [b]) was 3.24^[b].
With `C=C(CON=C(Cl)c1cccc(C)n1)CON=C(Cl)c1ccc(C)c(C)n1` [compound 822] the logP (value marked [a]) was 4.12^[a].
For `CCC1=NOC(CON=C(C)c2ccc(C)c(C)n2)(CON=C(C)c2ccc(C)c(C)n2)C1` (stereo not shown) [compound 628], the logP (method marked [b] in Table 1) was 2.51^[b].
For `C=C(CON=Cc1cccc(C)n1)CON=Cc1cccc(C)n1` [compound 667], the logP (method marked [b] in Table 1) was 2.16^[b].
For `C=C(CON=C(C)c1nc(OC)cc(OC)n1)CON=C(C)c1nc(OC)cc(OC)n1` [compound 565], the logP (method marked [b] in Table 1) was 4.10^[b] and the logP (method marked [c] in Table 1) was 4.10^[c].
In the case of `CC(C)=CC1=NOC(CO/N=C(\C)c2cccc(C)n2)(CO/N=C(\C)c2cccc(C)n2)C1` [compound 604], the logP (method marked [b] in Table 1) is reported as 3.70^[b].
In the case of `CC(=NOCCCON=C(C)c1cccc(Br)n1)c1cccc(Br)n1` [compound 80], the logP [2] is reported as 5.99^[a].
With `CC(=NOCC(C)CON=C(C)c1csc(C)n1)c1csc(C)n1` (stereo not shown) [compound 517] the logP (value marked [a]) was 3.52^[a] and the logP (value marked [b]) was 3.52^[b].
In the case of `CC(=NOC[Si](C)(CON=C(C)c1cc(C)cc(C)n1)C(C)C)c1cc(C)cc(C)n1` [Compound 836], the logP (value marked [a]) is reported as 5.04^[a], the logP (value marked [b]) is reported as 5.04^[b] and the logP (value marked [c]) is reported as 7.36^[c].
In the case of `CC1=NOC(CON=C(C)c2ccc(C)c(C)n2)(CON=C(C)c2ccc(C)c(C)n2)C1` (stereo not shown) [compound 626], the logP (method marked [b] in Table 1) is reported as 2.07^[b].
With `C=C(CON=C(C)c1cccc(C)n1)CON=C(C)c1ncccc1C` (single isomer, unassigned) [compound 478] the logP (value marked [b]) was 3.11^[b] (isomer B).
For `CC(=NOCC(F)(F)CON=C(C)c1cccc(C)n1)c1cccc(C)n1` [compound 86], the logP [2] was 4.00^[a].
With `CC(=NOCC1(CON=C(C)c2cccc(C)n2)CC(C(C)C)=NO1)c1cccc(C)n1` (stereo not shown) [compound 597] the logP (method marked [b] in Table 1) was 3.28^[b].
In the case of `Cc1cccc(C(CS(C)(=O)=O)=NOCCCON=C(CS(C)(=O)=O)c2cccc(C)n2)n1` [compound 170], the logP [2] is reported as 2.75^[a].
In the case of `C=C(CON=C(C)c1ccc(Cl)s1)CON=C(C)c1ccc(Cl)s1` [compound 20], the logP [1] is reported as 5.88^[b].
In the case of `CC(=NOCCCCON=C(C)c1ccc(Cl)s1)c1cccc(C)n1` [compound 446], the logP (value marked [b]) is reported as 4.97^[b].
In the case of `C=C(CON=C(C)c1cccc(C)n1)CON=C(c1cccc(C)n1)C1CC1` (single isomer, unassigned) [compound 536], the logP (method marked [b] in Table 1) is reported as 3.19^[b] (isomer A).
In the case of `CC(=NOCCON=C(C)c1cccnc1)c1cccnc1` [Compound 32], the logP [1] is reported as 1.32^[b].
With `CC(=NOCC(C)CON=C(C)c1ncccc1C)c1cccc(C)n1` (stereo not shown) [compound 503] the logP (value marked [b]) was 3.37^[b].
For `CC(=NOCCCON=C(C)c1cccnc1)c1cccnc1` [compound 33], the logP [1] was 1.51^[b].
With `C=C(CON=C(N)c1cc(C)cc(C)n1)CON=C(N)c1cc(C)cc(C)n1` [compound 127] the logP [1] was 2.7^[b].
In the case of `C=C(CON=C(CCC)c1cccc(C)n1)CON=C(CCC)c1cccc(C)n1` (mixture of isomers) [Compound 240], the logP [2] is reported as 6.27^[a].
In the case of `C=C(CON=C(C)c1cccc(C)n1)CON=C(C)c1cc(OC)cc(C)n1` (single isomer, unassigned) [Compound 476], the logP (value marked [b]) is reported as 3.33^[b] (isomer B).
For `CC(=NOCC(CON=C(C)c1ccc(C)c(C)n1)C(C)C)c1ccc(C)c(C)n1` (stereo not shown) [Compound 681], the logP (method marked [b] in Table 1) was 4.57^[b] and the logP (method marked [c] in Table 1) was 7.18^[c].
For `CC(=NOC/C=C/CON=C(C)c1ccc(C)c(C)n1)c1ccc(C)c(C)n1` [compound 684], the logP (method marked [a] in Table 1) was 2.67^[a].

Source: patent US20100022559A1, “BISOXIMES AS FUNGICIDES” (BAYER CROPSCIENCE AG, priority 2006, published 2010)
